Results on 14 compounds are retold here after patent publication US9663528B2, “Substituted 1,2,3,4,6,8,12,12a-octahydro-1,4-methanodipyrido[1,2-a:1',2'-d]pyrazines and methods for treating viral infections” (priority 2012, dated 2017).

The structures appear in SMILES notation. Like-named read-outs stand apart in the source and are kept apart here.

One data set deals with OCT2 (Homo sapiens (Human), UniProt O15244). Nature of the data set: OCT2 inhibition assay (14C-TEA uptake, OCT2-transfected MDCKII cells). The data set is classed as cell-based. How it is done:
On assay day, cells were trypsinized and resuspended in Krebs-Henseleit Buffer (KHB), pH 7.4 at […]. Cells were preincubated for 15 min in assay plate before addition of test compound or substrate. Test compounds were serially diluted in DMSO and then spiked (2 μL) into in 0.4 mL KHB buffer containing wild-type or OCT2-transfected cells and incubated for 10 minutes. Assay was initiated with the addition of 0.1 mL of 100 μM ^14C-TEA in KHB buffer (20 μM final concentration after mixing). The concentration of TEA is based on the Km. After 10 minutes of incubation, the assay mixture was quenched with addition of 0.5 mL of ice-cold 1×PBS buffer. Samples were then centrifuged at 1000 rpm for 5 min and supernatants were removed. Wash steps were repeated four times with ice-cold PBS. Finally, the cell pellets were lysed with 0.2N NaOH and let sit at room temperature for at least 30 min to ensure complete lysis. Samples were then counted on liquid scintillation counter and dpm counts were used to perform the following calculations.

The next data set in a line: in vitro. As to conditions: human.
Another data set deals with PXR (Homo sapiens (Human), UniProt O75469). Kind of data set: Human PXR activation assay (luciferase reporter gene assay, DPX2 cells). The data set is classed as cell-based. As to conditions: human. As for the experimental part:
A stably transformed tumor cell line (DPX2) was plated on 96-well microtiter plates. DPX2 cells harbor the human PXR gene (NR112) and a luciferase reporter gene linked to two promoters identified in the human CYP3A4 gene, namely XREM and PXRE. […] The number of viable cells was determined and the reporter gene activity was assessed. Positive control: […]
In general terms: Reporter assays use an easily measured gene product as a stand-in for the process of interest.

A short description of data set [1]: Pharmacokinetic analysis following intravenous administration to beagle dogs. It is filed as in vivo. The note with it: male, dog, 0.5 mg/kg; for MRT / clearance: beagle, in vivo, iv; for Vd: plasma, beagle dogs, IV infusion over 30 min, read-out: Vss. How it is done: Pharmacokinetic analysis was performed on various test compounds following intravenous or oral administration to beagle dogs.
For pharmacokinetic analysis of intravenously administered compounds, the test compounds were formulated in 5% Ethanol, 55% PEG 300, and 40% water at 0.1 mg/mL for IV infusion. For pharmacokinetic analysis of orally administered compounds, the test compounds were formulated as an aqueous suspension in 0.1% Tween 20, 0.5% HPMC LV 100 in Di Water at 1 mg/kg.
Each dosing group consisted of 3 male, non-naïve purebred beagle dogs. At dosing, the animals weighed between 10 to 13 kg. The animals were fasted overnight prior to dose administration and up to 4 hr after dosing. For studies of intravenous administration, the test article was administered to the animals by intravenous infusion over 30 min. The rate of infusion was adjusted according to the body weight of each animal to deliver a dose of 0.5 mg/kg. For studies of oral administration, the test article was administered according to the body weight of each animal to deliver a dose of 1 mg/kg.
For pharmacokinetic analysis of intravenously administered compounds, serial venous blood samples (approximately 1 mL each) were taken from each animal at 0, 0.250, 0.483, 0.583, 0.750, 1.00, 1.50, 2.00, 4.00, 8.00, 12.0, and 24.0 hours after dosing. The blood samples were collected into Vacutainer™ tubes containing EDTA-K2 as the anti-coagulant and were immediately placed on wet ice pending centrifugation for plasma. An LC/MS/MS method was used to measure the concentration of the test compound in plasma. An aliquot of 100 μL of each plasma sample was added to a clean 96 well plate, and 400 μL of cold acetonitrile/internal standard solution (ACN)/(ISTD) was added. After protein precipitation, an aliquot of 110 μL of the supernatant was transferred to a clean 96-well plate and diluted with 300 μL of water. An aliquot of 25 μL of the above solution was injected into a TSQ Quantum Ultra LC/MS/MS system utilizing a Hypersil Gold C18 HPLC column (50×3.0 mm, 5 μm; Thermo-Hypersil Part #25105-053030). An Agilent 1200 series binary pump (P/N G1312A Bin Pump) was used for elution and separation, and an HTS Pal autosampler (LEAP Technologies, Carrboro, N.C.) was used for sample injection. A TSQ Quantum Ultra triple quadrupole mass spectrometer was utilized in selective reaction monitoring mode (Thermo Finnigan, San Jose, Calif.). Liquid chromatography was performed using two mobile phases: mobile phase A contained 1% acetonitrile in 2.5 mM ammonium formate aqueous solution with pH of 3.0, and mobile phase B contained 90% acetonitrile in 10 mM ammonium formate with pH of 4.6. Non-compartmental pharmacokinetic analysis was performed on the plasma concentration-time data. The resulting data are shown in the first three columns of Table 4. In Table 4, CL refers to clearance, which characterizes the rate at which drug is removed from plasma. The lower the clearance of a drug is, the longer the elimination half-life is in the body. Vss refers to the steady state volume of distribution and indicates how well a drug is distributed into the tissues. The larger the Vss is, the longer the elimination half-life is in the body. MRT refers to mean residence time, which is a measure of the average time molecules exist in the body.

[2] abbreviates: 15 μM, relative to maximum fold induction by 10 or 20 μM rifampicin, DPX2 cells, 24 hours, read-out: % Emax at 15 μM.
Setting [3] is: OCT2 mediated uptake of 14C-TEA (20 μM), MDCKII cells, read-out: IC50.
The mark [4] stands for this setting: MT-4 cells, mock-infected, CC50 nM in MT-4, MT-4 cells, 5 days incubation.

Chain of PXR (O75469 whole entry): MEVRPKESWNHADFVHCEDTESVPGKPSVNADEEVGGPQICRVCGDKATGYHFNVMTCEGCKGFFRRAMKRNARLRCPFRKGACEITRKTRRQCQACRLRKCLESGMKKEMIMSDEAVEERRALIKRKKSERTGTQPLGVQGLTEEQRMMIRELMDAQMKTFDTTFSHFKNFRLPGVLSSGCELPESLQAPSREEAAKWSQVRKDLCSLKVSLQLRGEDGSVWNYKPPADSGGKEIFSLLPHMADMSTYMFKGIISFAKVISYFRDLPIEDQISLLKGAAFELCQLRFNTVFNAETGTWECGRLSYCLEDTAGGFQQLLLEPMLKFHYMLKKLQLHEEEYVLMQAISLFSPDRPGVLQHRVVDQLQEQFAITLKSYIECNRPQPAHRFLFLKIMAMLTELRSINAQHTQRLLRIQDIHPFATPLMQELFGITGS
Chain of OCT2 (O15244 whole entry): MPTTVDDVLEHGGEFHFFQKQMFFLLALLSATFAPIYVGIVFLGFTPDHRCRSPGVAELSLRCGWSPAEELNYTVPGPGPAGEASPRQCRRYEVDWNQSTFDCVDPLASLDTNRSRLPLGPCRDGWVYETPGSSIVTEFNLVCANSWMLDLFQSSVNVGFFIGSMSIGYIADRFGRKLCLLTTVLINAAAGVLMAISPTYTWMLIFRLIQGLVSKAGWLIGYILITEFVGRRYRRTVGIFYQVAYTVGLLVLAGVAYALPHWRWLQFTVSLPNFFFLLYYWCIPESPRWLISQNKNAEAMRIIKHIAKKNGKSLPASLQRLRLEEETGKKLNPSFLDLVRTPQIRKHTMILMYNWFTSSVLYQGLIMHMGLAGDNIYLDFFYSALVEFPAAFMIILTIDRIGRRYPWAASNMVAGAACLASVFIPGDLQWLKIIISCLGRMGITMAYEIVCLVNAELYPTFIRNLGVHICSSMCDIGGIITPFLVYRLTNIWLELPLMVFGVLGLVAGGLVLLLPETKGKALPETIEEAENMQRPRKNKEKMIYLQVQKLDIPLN

The compound `CC1CC2CC1OC1Cn3cc(C(=O)NCc4ccc(F)cc4F)c(=O)c(O)c3C(=O)N21` (single isomer, unassigned) [Compound 40] registered an IC50 against OCT2 of 0.204 µM. The CC50 at 5 days in “in vitro” (CC50 nM in MT-4) came out at 9560 nM. In addition, the Emax at 24 h, 15 µM on PXR (setting [2]) worked out at 0%.
Take `O=C(NCc1c(F)cc(F)cc1F)c1cn2c(c(O)c1=O)C(=O)N1[C@H]3C[C@H](C3)[C@H]1C2` (single isomer, unassigned) [Compound 96]: the concentration for half-maximal inhibition (IC50) at OCT2 (setting [3]) was 1.36 µM. In addition, the CC50 at 5 days in “in vitro” (setting [4]) is 26600 nM. On PXR (setting [2]), the maximal effect (Emax) at 24 h, 15 µM turned out to be 11%.
As to `O=C(NCc1ccc(F)cc1F)c1cn2c(c(O)c1=O)C(=O)N1C(C2)[C@H]2CC[C@@H]1C2` (stereo in doubt) [Compound 48, (1S,4R,12aS)-N-(2,4-difluorobenzyl)-7-hydroxy-6,8-dioxo-1,2,3,4,6,8,12,12a-octahydro-1,4-methanodipyrido[1,2-a:1′,2′-d]pyrazine-9-carboxamide], 4.91 µM corresponded to half-maximal inhibition on OCT2 (IC50). Moreover, the CC50 at 5 days in “in vitro” (CC50 nM in MT-4) stood at 14000 nM. At PXR (setting [2]), the maximal response (Emax) at 24 h, 15 µM amounted to 5%.
Turning to `C[C@@H]1CCO[C@H]2Cn3cc(C(=O)NC4(c5ccc(F)cc5F)CC4)c(=O)c(O)c3C(=O)N12` [Compound 5, (4R,12aS)-N-(1-(2,4-difluorophenyl)cyclopropyl)-7-hydroxy-4-methyl-6,8-dioxo-3,4,6,8,12,12a-hexahydro-2H-[1,3]oxazino[3,2-d]pyrido[1,2-a]pyrazine-9-carboxamide], on OCT2 (setting [3]), the IC50 worked out at 2.23 µM. This compound gave a CC50 at 5 days in “in vitro” (setting [4]) of 10500 nM. In addition, on PXR (setting [2]), the maximal effect (Emax) at 24 h, 15 µM amounted to 32%.
Consider `O=C(NCc1ccc(F)cc1F)c1cn2c(c(O)c1=O)C(=O)N1C(C2)O[C@H]2CCC[C@@H]1C2` (stereo partly drawn) [Compound 7, (2S,6R)-N-(2,4-difluorobenzyl)-9-hydroxy-8,10-dioxo-3,4,5,6,8,10,14,14a-octahydro-2H-2,6-methanopyrido[1′,2′:4,5]pyrazino[2,1-b][1,3]oxazocine-11-carboxamide], for which the CC50 at 5 days in “in vitro” (CC50 nM in MT-4) worked out at 15600 nM. Besides, at PXR, the maximal response (Emax) at 24 h, 15 µM stood at 6%. Further, in data set [1], the mean residence time (MRT) came to 2.3 h, the clearance was 8.5 mL/min/kg and the Vd worked out at 1.2 L/kg.
In the same order, the values of `O=C(NCc1ccc(F)cc1F)c1cn2c(c(O)c1=O)C(=O)N1C(C2)O[C@@H]2CCC[C@H]1C2` (stereo partly drawn) [Compound 8, (2R,6S)-N-(2,4-difluorobenzyl)-9-hydroxy-8,10-dioxo-3,4,5,6,8,10,14,14a-octahydro-2H-2,6-methanopyrido[1′,2′:4,5]pyrazino[2,1-b][1,3]oxazocine-11-carboxamide] are 13900 nM, 7%, 1.8 h, 8.3 mL/min/kg and 0.87 L/kg.
On to `C[C@@H](NC(=O)c1cn2c(c(O)c1=O)C(=O)N1[C@@H]3CC[C@@H](C3)O[C@H]1C2)c1ccc(F)cc1F` [Compound 11, (2S,5R,13aS)-N—((R)-1-(2,4-difluorophenyl)ethyl)-8-hydroxy-7,9-dioxo-2,3,4,5,7,9,13,13a-octahydro-2,5-methanopyrido[1′,2′:4,5]pyrazino[2,1-b][1,3]oxazepine-10-carboxamide], for which it took 10 µM to reach half-maximal inhibition on OCT2 (IC50). The CC50 at 5 days in “in vitro” (CC50 nM in MT-4) amounted to 10300 nM.
Turning to `C[C@H](NC(=O)c1cn2c(c(O)c1=O)C(=O)N1[C@@H]3CC[C@@H](C3)O[C@H]1C2)c1ccc(F)cc1F` [Compound 13, (2S,5R,13aS)-N—((S)-1-(2,4-difluorophenyl)ethyl)-8-hydroxy-7,9-dioxo-2,3,4,5,7,9,13,13a-octahydro-2,5-methanopyrido[1′,2′:4,5]pyrazino[2,1-b][1,3]oxazepine-10-carboxamide], the IC50 on OCT2 was found to be 0.61 µM. Also, the CC50 at 5 days in the data set “in vitro” (CC50 nM in MT-4) worked out at 12700 nM.
Regarding `O=C(N[C@@H](c1ccc(F)cc1F)C(F)(F)F)c1cn2c(c(O)c1=O)C(=O)N1C(C2)O[C@H]2CC[C@@H]1C2` (stereo partly drawn) [Compound 36, (2S,5R)-N—((S)-1-(2,4-difluorophenyl)-2,2,2-trifluoroethyl)-8-hydroxy-7,9-dioxo-2,3,4,5,7,9,13,13a-octahydro-2,5-methanopyrido[1′,2′:4,5]pyrazino[2,1-b][1,3]oxazepine-10-carboxamide], on OCT2, it took 10 µM to reach half-maximal inhibition (IC50). The CC50 at 5 days in “in vitro” (CC50 nM in MT-4) was 11400 nM. Also, the maximal effect (Emax) at 24 h, 15 µM at PXR turned out to be 3%.
Take `C[C@H]1C[C@@H]2C[C@H]1O[C@H]1Cn3cc(C(=O)NCc4ccc(F)cc4F)c(=O)c(O)c3C(=O)N21` [Compound 39, (2R,3S,5R,3aS)-N-(2,4-difluorobenzyl)-8-hydroxy-3-methyl-7,9-dioxo-2,3,4,5,7,9,13,13a-octahydro-2,5-methanopyrido[1′,2′:4,5]pyrazino[2,1-b][1,3]oxazepine-10-carboxamide]: on OCT2, the IC50 came to 0.358 µM. The CC50 at 5 days in “in vitro” (CC50 nM in MT-4) came out at 12200 nM. In addition, at PXR (setting [2]), the maximal effect (Emax) at 24 h, 15 µM was found to be 6%.
On to `O=C(NCc1c(F)cc(F)cc1F)c1cn2c(c(O)c1=O)C(=O)N1[C@@H]3CC[C@@H](C3)O[C@H]1C2` [Compound 45, (13aS)-8-hydroxy-7,9-dioxo-N-(2,4,6-trifluorobenzyl)-2,3,4,5,7,9,13,13a-octahydro-2,5-methanopyrido[1′,2′:4,5]pyrazino[2,1-b][1,3]oxazepine-10-carboxamide], for which, at OCT2 (setting [3]), the concentration for half-maximal inhibition (IC50) stood at 0.137 µM. In “in vitro” (setting [4]), this compound came in with a CC50 at 5 days of 15800 nM. Moreover, the maximal response (Emax) at 24 h, 15 µM on PXR (setting [2]) is 19%.
For the compound `O=C(NCc1ccc(F)cc1Cl)c1cn2c(c(O)c1=O)C(=O)N1[C@H]3CC[C@H](C3)O[C@@H]1C2` [Compound 63, (2R,5S,13aR)-N-(2-chloro-4-fluorobenzyl)-8-hydroxy-7,9-dioxo-2,3,4,5,7,9,13,13a-octahydro-2,5-methanopyrido[1′,2′:4,5]pyrazino[2,1-b][,3]oxazepine-10-carboxamide], at OCT2 (setting [3]), the IC50 is 0.042 µM. Further, the CC50 at 5 days in the data set “in vitro” (CC50 nM in MT-4) was found to be 3160 nM. The Emax at 24 h, 15 µM on PXR (setting [2]) worked out at 13%.
Take `O=C(NCc1cc(F)c(F)cc1F)c1cn2c(c(O)c1=O)C(=O)N1[C@H]3CC[C@H](C3)O[C@@H]1C2` [Compound 64, (2R,5S,13aR)-8-hydroxy-7,9-dioxo-N-(2,4,5-trifluorobenzyl)-2,3,4,5,7,9,13,13a-octahydro-2,5-methanopyrido[1′,2′:4,5]pyrazino[2,1-b][1,3]oxazepine-10-carboxamide]: the IC50 at OCT2 (setting [3]) was found to be 0.094 µM. In the data set “in vitro” (CC50 nM in MT-4), this compound yielded a CC50 at 5 days of 3330 nM. Moreover, the Emax at 24 h, 15 µM on PXR turned out to be 8%.
Compound `O=C(NCc1c(F)cc(F)cc1F)c1cn2c(c(O)c1=O)C(=O)N1[C@@H]3C[C@@H](C(F)C3F)[C@@H]1C2` (stereo partly drawn) [Compound 103, (1R,4R,12aR)-2,3-difluoro-7-hydroxy-6,8-dioxo-N-(2,4,6-trifluorobenzyl)-1,2,3,4,6,8,12,12a-octahydro-1,4-methanodipyrido[1,2-a:1′,2′-d]pyrazine-9-carboxamide] registered a CC50 at 5 days in “in vitro” (CC50 nM in MT-4) of 35100 nM. The maximal effect (Emax) at 24 h, 15 µM at PXR was 0%.

Broadly, the IC50 is the concentration that gives 50% inhibition. Broadly, the Emax is the greatest response seen or fitted, relative to the assay's reference. In general, MRT refers to a mean duration of stay, worked out from the concentration-time curve. The term clearance denotes a measure of how efficiently the substance is removed, as volume per time. High values mean a high capacity for elimination, low ones a low capacity for elimination.
